{"source": "patent US9498451B2", "about": "“Method for treating or preventing radiation damage” (Beijing Institute of Transfusion Medicine, Academy of …, priority 2013, dated 2016)", "key": {"[1]": {"tested_on": "mice radiated by 60Co γ-ray with a lethal dosage", "assay": "HE staining of intestinal, hepatic and pulmonary tissues of mice radiated by 60Co γ-ray with a lethal dosage (8.0 Gy)", "type": "in vivo, mouse (male C57/BL6)", "conditions": "2.5 mg/kg every three days, vs PBS group", "experimental": "6 male C57/BL6 mice were subjected to whole body irradiation by ^60Co γ ray with a dosage rate of 1.56 Gy/min and an irradiation dosage of 8.0 Gy. The radiated mice were divided into 2 groups randomly, a PBS group (control) having 3 mice and a TA01 group having 3 mice. Every mouse in the TA01 group was injected with 2.5 mg/kg TA01 (body weight) every three days, the solvent of the injection was a PBS solution with pH of 7.4. TA01 injection dosage for the PBS group was 0, in other words, only the PBS solution was injected. The mice both two groups were sacrificed by dislocation on the 10th day and the 14th day after the irradiation, respectively. The intestinal, hepatic and pulmonary tissues were collected, fixed with 4% paraformaldehyde and formed into paraffin sections. The paraffin sections were subjected to HE staining, so as to obserse repairing conditions of the intestinal, hepatic and pulmonary tissues, and the results were shown in FIGS. 5 and 6.\nFIG. 5 is diagrams showing results of hematoxylin-eosin staining with intestinal tissues of mice radiated by ^60Co γ-ray with a lethal dosage and treated with TA01 or PBS.\nFIG. 6 is diagrams showing results of hematoxylin-eosin staining with hepatic and pulmonary tissue of mice radiated by ^60Co γ-ray with a lethal dosage and treated with TA01 or PBS."}, "[2]": {"tested_on": "mice radiated by 60Co γ-ray with a lethal dosage", "assay": "Survival rate of mice radiated by 60Co γ ray with a lethal dosage (8.0 Gy) and injected with TA01", "type": "in vivo, mouse (male C57BL/6)", "conditions": "8.0 Gy 60Co whole body irradiation, vs control group", "experimental": "50 male C57BL/6 mice were subjected to whole body irradiation by ^60Co ray with a dosage rate of 1.56 Gy/min and an irradiation dosage of 8.0 Gy. The radiated mice were divided into 5 groups randomly, each group having 10 mice. The 5 groups were injected with TA01 with dosages of 0 mg/kg (control group), 1.25 mg/kg, 2.5 mg/kg, 5 mg/kg and 10 mg/kg, respectively. The injection was performed every three days and continued for 12 days, and the solvent of the injection was a PBS solution. Then, these mice were observed and survival rates of these mice were calculated.\nFIG. 2 is a diagram showing survival rates (rates of survival) of mice radiated by ^60Co γ-ray with a lethal dosage and subcutaneously injected with different dosages of TA01."}, "[3]": {"tested_on": "mice radiated by 60Co γ-ray with a sub-lethal dosage", "assay": "Contents of WBC, RBC and PLT in peripheral blood of mice radiated by 60Co γ-ray with a sub-lethal dosage (6.5 Gy)", "type": "in vivo, mouse (male C57)", "conditions": "2.5 mg/kg every three days for 5 times, vs PBS group", "experimental": "10 male C57 mice were subjected to whole body irradiation by ^60Co γ ray with a dosage rate of 1.56 Gy/min and an irradiation dosage of 6.5 Gy. The radiated mice were divided into 2 groups randomly, a PBS group having 5 mice and a TA01 group having 5 mice. Every mouse in the TA01 group was injected with 2.5 mg/kg (body weight) TA01 every three days for 5 times, and the solvent of the injection was a PBS solution. Every mouse in the PBS group was treated with the same process as the TA01 group, with the exception that the injection amount of TA01 was 0, in other words, only the PBS solution was injected. After different days for treating, each group of the mice was subjected to a cutting-tail process to collect 20 μL blood which was subsequently added with 2 mL blood cell dilution (commercially available from Jinan Bolai Biotechnology Co., Ltd).\nFIG. 3 is diagrams showing contents of WBC, RBC and PLT in peripheral blood of mice radiated by ^60Co γ-ray with a sub-lethal dosage and injected subcutaneously with TA01 or PBS (control) at different time points."}, "[4]": {"tested_on": "hemopoietic stem/progenitor cells in bone marrow", "assay": "Number of hemopoietic stem/progenitor cells (CFU, CFU-G, CFU-GM, CFU-MK) in bone marrow of sub-lethally radiated mice", "type": "in vivo, mouse (male C57/BL6)", "conditions": "6.5 Gy; 2.5 mg/kg every three days; bone marrow on 7th day, 7 days culture; vs control group", "experimental": "6 male C57/BL6 mice were subjected to whole body irradiation by ^60Co γ ray with a dosage rate of 1.56 Gy/min and an irradiation dosage of 6.5 Gy. The radiated mice were divided into 2 groups randomly, a PBS group having 3 mice and a TA01 group having 3 mice. Every mouse in the TA01 group was injected with 2.5 mg/kg TA01 (body weight) every three days, the solvent of the injection was a PBS solution with pH from 7.5 to 8.5. TA01 injection dosage for the PBS group was 0, in other words, only the PBS solution was injected. On the 7th day after the subcutaneous injection, bone marrow blood was collected from each mouse into respective 10 mL tubes pretreated with heparin (commercially available from Tianjing Haoyang Biological Product Technology Limited Liability Company). After the bone marrow blood was mixed with the heparin uniformly, fresh PBS (commercially available from Hyclone Company) was added therein up to 5 mL. After mixing, a uniform mixture of blood and PBS was obtained. Mouse lymphocyte separation medium (commercially available from Tianjing Haoyang Biological Product Technology Limited Liability Company) were subjected to pre-aliquot in centrifuge tubes each having 5 mL of the lymphocyte separation medium (operating in a super clean bench). Then the uniform mixture was gently added on the top of the lymphocyte separation medium, after which a centrifuge was performed at 1500 rpm/min for 20 min. The intermediate layer of cells in a white color was sucked into a new 10 mL centrifuge tube, which was then added with PBS up to 10 mL followed by a mixing and centrifuge at 1500 rpm/min for 5 min. Then obtained upper PBS was removed, and the tube was added with fresh PBS up to 10 ml followed by a mixing and centrifuge at 1500 rpm/min for 5 min. Then the upper PBS was removed, and the tube was added with fresh PBS up to 1 mL followed by a mixing, which was then subjected to a cell number counting. After calculating the number of single nucleus per mL blood, the blood was mixed uniformly with 500 μL semisolid medium (including 0.9% methylcellulose, 15% fetal bovine serum, 100 U/ml penicillin/streptomycin, 1 mM sodium pyruvate, 2 mM glutaminate, 2 mM PFHM II, 200 m/ml transferrin, 1% BSA, 0.45 mM MTG, 30% IMDM, 50 ng/ml SCF, 10 ng/ml TPO, 10 ng/ml IL-3, 10 ng/ml IL-11, 10 ng/ml GM-CSF and 3 U/ml EPO), and cultured in an incubator containing 5% CO2 at 37° C. After 7 days, hematopoietic colony-forming unit (CFU), granulocyte colony-forming unit (CFU-G), granulocyte and macrophage colony-forming unit (CFU-GM) and megakaryocyte colony-forming unit (CFU-MK) were counted respectively, and the results were shown in FIG. 4. […]"}}, "note": "“Also recorded” adds a separate entry of the source."}
{"smiles": "CN(C)CCN(CCN(C)C)CCN(C)C", "note": "[TA01, tris(2-(dimethylamino)ethyl)amine]", "values": [{"measurement": "repair of intestinal tissue (HE staining)", "setting": "[1]; 10th and 14th day", "result": "improve repairs"}, {"measurement": "repair of hepatic tissue (HE staining)", "setting": "[1]", "result": "improve repairs"}, {"measurement": "repair of pulmonary tissue (HE staining)", "setting": "[1]", "result": "improve repairs"}, {"measurement": "survival rate", "setting": "[2]; TA01 1.25 mg/kg every three days for 5 times", "result": "significantly increased"}, {"measurement": "survival rate", "setting": "[2]; TA01 2.5 mg/kg every three days for 5 times, 2.5 mg/kg", "result": "significantly increased; also recorded: best survival rate"}, {"measurement": "survival rate", "setting": "[2]; TA01 5 mg/kg every three days for 5 times", "result": "significantly increased"}, {"measurement": "survival rate", "setting": "[2]; TA01 10 mg/kg every three days for 5 times", "result": "significantly increased"}, {"measurement": "content of WBC in peripheral blood", "setting": "[3]; on the 4th, 7th and 21st day", "result": "significantly increased"}, {"measurement": "content of PLT in peripheral blood", "setting": "[3]; on the 4th, 14th, 21st and 28th day", "result": "significantly increased"}, {"measurement": "content of RBC in peripheral blood", "setting": "[3]; on the 21st day", "result": "most obviously increased"}, {"measurement": "number of CFU-G in bone marrow", "setting": "[4]", "result": "increased obviously"}, {"measurement": "number of CFU-GM in bone marrow", "setting": "[4]", "result": "increased obviously"}, {"measurement": "number of CFU-MK in bone marrow", "setting": "[4]", "result": "increased obviously"}, {"measurement": "number of total colony-forming units (CFU) in bone marrow", "setting": "[4]", "result": "increased significantly"}]}
